From EP0316592A2, “3'-Fluoro-2',3'-dideoxyuridine, and its therapeutic application” (Stichting REGA V.Z.W., priority 1987, dated 1989)
Where two headings read alike, the source gives them in different places.

Tests used:
[1] = system: C3H cells; experiment: Cytotoxicity for C3H cells (alteration of normal cell morphology); assay type: cell-based, mouse
[2] = system: MT4 cells; experiment: Cytotoxicity for non-infected MT4 cells (viable cell count)
Description: Then 100 µl of the infected cell suspension was added to 100 µl of an appropriate dilution of test compound in 200 µ1 wells of a Flat Bottom Microtest III Plate (Falcon, Becton Dickinson, Oxnard, CA, USA) (i.e. 40 CCID₅₀ HIV/200 µ1 well/5 x 10⁴ cells), and further incubated at 37°C in a CO₂-controlled humidified atmosphere.

[3] = system: MOLT/4F CELL DNA; experiment: Incorporation of radiolabelled precursors into Molt/4F cell DNA; assay type: cell-based, human; details: for IC50: Homo sapiens, Molt/4F cell DNA, 20-24 hours; for stimulatory effect on (5-3H)dCyd incorporation into DNA: as compared to the control
Description: The impact of ddUrd and the 3′-fluoro- and 3′-azido-substituted pyrimidine 2′,3′-dideoxynucleoside analogues on cellular DNA biosynthesis was evaluated by monitoring the effect of these compounds on the incorporation of radio- labelled (1′,2′-³H)dUrd (specific radioactivity 27 Ci/mmol), (methyl-³H)dThd (specific radioactivity […]) and (5-³H)dCyd (specific radioactivity 20 Ci/mmol) into DNA of Molt/4F cells.
The incorporation of radiolabelled precursors into Molt/4F cellular DNA was measured in microtest III plates (96 wells) (Flacon) as previously described (J. Balzarini et al, Mol. Pharmacol. 23, 175-181 (1983)). Shortly, to each well of the microplate were added 10⁵ Molt/4F cells and 0.25 µCi of (1′,2′-³H)dUrd, (methyl³H)dThd or (5-³H)dCyd. The cells were allowed to proliferate for 20-24 hours at 37°C in a humidified CO₂-controlled atmosphere. At the end of this incubation period, the contents of the wells (200 µ1) were brought onto 25-mm glass-fibre filters (type A/E, Gelman Instrument Company, Ann Arbor, Mich., USA) and washed twice with cold phosphate-buffered saline, twice with cold 10% trichloroacetic acid (TCA), twice with cold 5% TCA, once with ethanol and once with ether. The filters were then assayed for radioactivity in a toluene-based scintillant.

[4] = system: Molt/4F cells; experiment: Tritium release from (5-3H)dUrd or (5-3H)dCyd in intact Molt/4F cells; assay type: cell-based; details: Homo sapiens
Description: Briefly, 10⁷ Molt/4F cells/ml were preincubated with an appropriate amount of test compound for 15 min at 37°C. After this incubation period, radiolabelled (5-³H)dUrd or (5-³H)dCyd (100 µCi/ml; 0.1 µM) were added, and at various times (0, 15, 30, 45, 60 min), 100 µl of the reaction mixture was withdrawn, and mixed with 500 µl of a cold suspension of carbon black (100 mg/ml) in 5% TCA. After centrifugation at 1000 g for 10 min, the supernatants were analysed for radioactivity.

[5] = target: T1, bacterial thymidine phosphorylase (Escherichia coli, UniProt P07650); experiment: Phosphorolytic cleavage by dThd phosphorylase; assay type: biochemical; details: for susceptibility to phosphorolysis by dThd phosphorylase (in words): purified bacterial dThd phosphorylase; for Initial velocity of phosphorolysis: 25°C, 0.1 M sodium phosphate buffer, pH 7.0, N.D. = not detectable with 25 units of enzyme
T1 construct: purchased Sigma Chemical Co., St. Louis, MO
T1 sequence (P07650 whole entry): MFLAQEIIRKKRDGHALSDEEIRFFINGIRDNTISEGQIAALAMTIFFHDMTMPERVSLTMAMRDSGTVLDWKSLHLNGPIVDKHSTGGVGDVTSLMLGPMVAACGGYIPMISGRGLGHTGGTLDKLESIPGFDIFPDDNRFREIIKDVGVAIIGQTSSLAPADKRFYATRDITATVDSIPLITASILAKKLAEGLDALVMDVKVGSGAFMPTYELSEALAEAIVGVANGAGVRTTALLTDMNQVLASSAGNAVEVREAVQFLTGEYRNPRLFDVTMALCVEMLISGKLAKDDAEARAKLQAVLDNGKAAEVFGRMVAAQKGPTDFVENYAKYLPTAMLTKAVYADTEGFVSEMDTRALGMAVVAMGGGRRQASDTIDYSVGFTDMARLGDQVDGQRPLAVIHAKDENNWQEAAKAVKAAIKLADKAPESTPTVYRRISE
Description: Phosphorolytic cleavage of the test compounds was assessed using purified bacterial dThd phosphorylase (Sigma Chemical Co., St. Louis, MO) with the aid of a Beckman spectrophotometer UV/Vis 5200; the absorbance change during the enzyme reaction was continuously monitored at 25°C at the wavelength where the difference of absorption between the nucleoside and its free base was maximal. The reaction mixtures for all the assays consisted of enzyme and non-satura ting concentrations of nucleoside in 0.1 M sodium phosphate buffer, pH 7.0. The initial velocity of phosphorolysis was expressed as nmol/min/enzyme unit.

[6] = target: T2, Molt/4F dCyd kinase (Homo sapiens, UniProt P27707); experiment: Inhibition of dCyd kinase (Lineweaver-Burk); assay type: biochemical; details: for Type of inhibition: with respect to dCyd
T2 construct: endogenous in cells; host or cells: Molt/4F cells (sonicated extract, 30-70% ammonium sulfate fraction, dialyzed)
T2 sequence (P27707 whole entry): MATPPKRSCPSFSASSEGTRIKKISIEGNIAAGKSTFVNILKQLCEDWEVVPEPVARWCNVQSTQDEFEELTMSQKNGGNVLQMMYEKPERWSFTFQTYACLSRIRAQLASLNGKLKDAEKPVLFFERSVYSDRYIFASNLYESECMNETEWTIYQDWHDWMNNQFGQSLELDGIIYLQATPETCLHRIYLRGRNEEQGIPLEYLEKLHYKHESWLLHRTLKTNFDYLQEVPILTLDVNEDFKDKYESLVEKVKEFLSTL
Description: ddUrd and the 3′-fluoro- and 3′-azido-substituted pyrimidine 2′,3′-dideoxynucleoside analogues were evaluated for their inhibitory effect against dThd and dCyd kinase.
dThd kinase and dCyd kinase were prepared from exponen tially growing Molt/4F cells, which were first washed (2x) with phosphate-buffered saline at 4° and then homogenized by sonication. The suspensions were clarified by centrifugation at 25,000-27,000 x g for 30 min. The 30-70% (NH₄)₂SO₄ precipitate of the supernatant was resuspended in buffer containing 10 uM potassium phosphate, pH 7.5, 10 mM β-mercaptoethanol and 0.1 M KCl, dialyzed against the same buffer, and used for the dThd kinase and the dCyd kinase assays. In these experiments, (2-¹⁴C)dThd and (U-¹⁴C)dCyd served as the radiolabelled substrates. The apparent Km and Ki values were derived from Lineweaver-Burk plots, using a linear regression analysis program. The assay procedures have been described in detail (J. Balzarini et al, (1983) and J. Balzarini et al, Biochem. Pharmacol. 31, 3673-3682 (1982)).

[7] = system: human B- and T-cell lines; experiment: Cytostatic effect, pooled over several cell lines; assay type: cell-based; details: for IC50: read-out: ID50 (the source's name)
Description: All assays were performed in flat bottom Microtest III Plates (96 wells) (Falcon) as previously described by E. De […] et al (Mol. Pharmacol. 19, 321-330 (1981)). Briefly, the cells were suspended in growth medium and added to the microplate wells at a density of 7.5 x 10^4 cells/well (200 μ1) in the presence of varying concentrations of the test compounds. The cells were then allowed to proliferate for 68-72 hours at 37°C in a humidified, CO2-controlled atmosphere. At the end of the incubation period, the cells were counted with a Coulter Counter (Coulter Electronics Ltd., Harpenden Herts, U.K.).

[8] = alteration of normal cell morphology, C3H cells
[9] = 50% reduction of viable cells in non-infected MT4 cell cultures, 5 days
[10] = read-out: ID50 (1',2'-3H)dUrd incorporation
[11] = read-out: ID50 (5-3H)dCyd incorporation
[12] = read-out: ID50 (methyl-3H)dThd incorporation
[13] = read-out: ID50 tritium release from (5-3H)dUrd
[14] = Homo sapiens, CEM and Molt/4F cells, range over both compounds and both cell lines
[15] = Homo sapiens, Raji cells, range over both compounds
[16] = read-out: ID50 tritium release from (5-3H)dCyd

SMILES	MSV-induced cyto-pathogenicity CD50 [1, 8]	HIV-induced cyto-pathogenicity CD50 [2, 9]	IC50 [3, 10]	IC50 [3, 11]	IC50 [3, 12]	IC50 [4, 13]	susceptibility to phosphorolysis by dThd phosphorylase (in words) [5]	Ki/Km ([6]; Km 5.2 to 6.4 µM)	Ki ([6]; substrate (U-14C)dCyd)	Type of inhibition [6]	stimulatory effect on (5-3H)dCyd incorporation into DNA ([3]; at 200 µM)	stimulatory effect on (5-3H)dCyd incorporation into DNA ([3]; at 1000 µM)	IC50 [7, 14]	IC50 [7, 15]	IC50 [4, 16]	MSV-induced cyto-pathogenicity CD50 [1]	HIV-induced cyto-pathogenicity CD50 [2]	Initial velocity of phosphorolysis [5]	fold higher susceptibility of CEM cells to the cytostatic action than the other cell lines ([7]; CEM versus other cell lines)	IC50 ([7]; the other cell lines (all but CEM))
CCc1cn([C@H]2CC[C@@H](CO)O2)c(=O)[nH]c1=O [ddEtUrd, 2′,3′-Dideoxy-5-ethyluridine]	>400 µM	>625 µM	> 1000 µM	> 1000 µM	> 1000 µM	> 250 µM	no phosphorolytic cleavage whatsoever	–	–	–	–	–	–	–	–	–	–	–	–	–
CCc1cn([C@H]2C[C@H](F)[C@@H](CO)O2)c(=O)[nH]c1=O [FddEtUrd, 3′-fluoro-2′,3′-dideoxy-5-ethyluridine]	>400 µM	>625 µM	> 1000 µM	> 1000 µM	> 1000 µM	> 250 µM	no phosphorolytic cleavage whatsoever	–	–	–	–	–	–	–	–	–	–	–	–	–
Nc1ccn([C@H]2C[C@H](F)[C@@H](CO)O2)c(=O)n1 [FddCyd, 3′-fluoro-2′,3′-dideoxycytidine]	>400 µM	26 µM	27.3 µM	> 1000 µM	> 1000 µM	–	totally resistant	63	360 µM	competitive	1.7 fold	2 fold	6 to 24 µM	23 to 95 µM	–	–	–	–	–	–
[N-]=[N+]=N[C@H]1C[C@H](n2ccc(=O)[nH]c2=O)O[C@@H]1CO [AzddUrd, 3′-azido-2′,3′-dideoxyuridine]	>400 µM	244 µM	172 µM	725 µM	> 1000 µM	20 µM	–	–	–	–	–	–	–	–	> 250 µM	–	–	–	–	–
O=c1ccn([C@H]2CC[C@@H](CO)O2)c(=O)[nH]1 [ddUrd, 2′-3′-dideoxyuridine]	–	–	> 1000 µM	> 1000 µM	> 1000 µM	> 250 µM	–	–	–	–	–	–	–	–	> 250 µM	>400 µM	>625 µM	0.270 nmol/min/unit	–	–
Nc1ccn([C@H]2CC[C@@H](CO)O2)c(=O)n1 [ddCyd, 2′,3′-Dideoxycytidine]	>400 µM	40 µM	32 µM	> 1000 µM	753 µM	–	totally resistant	–	–	competitive	1.7 fold	2 fold	6 to 24 µM	23 to 95 µM	–	–	–	–	–	–
CCc1cn([C@H]2C[C@H](N=[N+]=[N-])[C@@H](CO)O2)c(=O)[nH]c1=O [AzddEtUrd, 3′-azido-2′,3′-dideoxy-5-ethyluridine]	>200 µM	418 µM	> 1000 µM	> 1000 µM	> 1000 µM	51 µM	no phosphorolytic cleavage whatsoever	–	–	–	–	–	–	–	> 250 µM	–	–	–	–	–
O=c1ccn([C@H]2C[C@H](F)[C@@H](CO)O2)c(=O)[nH]1 [FddUrd, 3′-fluoro-2′,3′-dideoxyuridine]	>400 µM	16 µM	16 µM	> 1000 µM	> 1000 µM	126 µM	–	–	–	–	–	–	–	–	> 250 µM	–	–	0.018 nmol/min/unit	70 fold	> 1000 µM
